Source: patent publication US8436043B2 (Takeda Pharmaceutical Company Limited, priority 2008, dated 2013)

The compounds below were run against T1, human glucagon receptor (Homo sapiens, UniProt P47871) (assay: Glucagon binding inhibitory activity ([125I]-glucagon binding to glucagon receptor membrane protein)). Settings: human glucagon receptor membrane protein, [125I]-glucagon, 90 min room temperature.
T1 construct: made in house; host or cells: FreeStyle CHO cells, transient transfection with pMSRαneo/hGCGR; membrane fraction (35,000 rpm pellet)
T1 sequence (P47871 26-477): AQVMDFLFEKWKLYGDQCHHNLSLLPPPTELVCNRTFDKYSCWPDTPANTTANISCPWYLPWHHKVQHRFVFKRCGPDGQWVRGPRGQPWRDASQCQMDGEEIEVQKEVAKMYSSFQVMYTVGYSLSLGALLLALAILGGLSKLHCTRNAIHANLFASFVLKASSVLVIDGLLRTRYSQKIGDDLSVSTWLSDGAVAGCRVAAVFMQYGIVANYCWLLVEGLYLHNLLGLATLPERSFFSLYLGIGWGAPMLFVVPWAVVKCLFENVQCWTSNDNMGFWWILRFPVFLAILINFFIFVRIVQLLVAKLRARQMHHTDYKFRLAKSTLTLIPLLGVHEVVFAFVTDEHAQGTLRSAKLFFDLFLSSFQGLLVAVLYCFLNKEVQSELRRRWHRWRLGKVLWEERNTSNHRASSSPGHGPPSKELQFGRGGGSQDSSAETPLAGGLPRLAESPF
In short: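 Receptor source was a membrane fraction of transiently transfected CHO cells bearing human receptor; 90 min room-temperature binding, filtration harvest, scintillation counting.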

IC50	SMILES
2.3 µM	Cc1nn(Cc2ccccc2)cc1C(Nc1ccc(C(=O)NCCC(=O)O)cc1)C1CCCCC1 (stereo not drawn) [Example 41, 3-{[(4-{[(1-benzyl-3-methyl-1H-pyrazol-4-yl)(cyclohexyl)methyl]amino}phenyl)carbonyl]amino}propanoic acid]

Same assay, conditions: test compound 10 μM; 0.4% DMSO = 0%, non-labeled glucagon 1 μM = 100%; read-out: inhibitory rate (%) at 10 μM

inhibition at 10 µM	SMILES
59%	COc1ccc2oc(C(CCCCSC)Nc3ccc(C(=O)N(C)CCC(=O)O)cc3)c(C)c2c1 (stereo not drawn) [Example A121, 3-{[(4-{[1-(5-methoxy-3-methyl-1-benzofuran-2-yl)-5-(methylsulfanyl)pentyl]amino}phenyl)carbonyl](methyl)amino}-propanoic acid]
76%	CN(CCC(=O)O)C(=O)c1ccc(NC(c2cn(-c3ccc(C(F)(F)F)cn3)nc2C2CC2)C2CCCCC2)cc1 (stereo not drawn) [Example 10, 3-[({4-[(cyclohexyl{3-cyclopropyl-1-[5-(trifluoromethyl)pyridin-2-yl]-1H-pyrazol-4-yl}methyl)amino]phenyl}carbonyl)(methyl)amino]propanoic acid]
84%	Cc1c(C(Nc2ccc(C(=O)NCCC(=O)O)cc2)C2CCCCC2)oc2cccc(F)c12 (stereo not drawn) [Example A161, 3-{[(4-{[cyclohexyl(4-fluoro-3-methyl-1-benzofuran-2-yl)methyl]amino}phenyl)carbonyl]amino}propanoic acid]
74%	Cc1c(C(Nc2ccc(C(=O)NCCC(=O)O)cc2)C2CCCCC2)oc2ccc(OCCCS(C)(=O)=O)cc12 (stereo not drawn) [Example A153, 3-[({4-[(cyclohexyl{3-methyl-5-[3-(methylsulfonyl)propoxy]-1-benzofuran-2-yl}methyl)amino]phenyl}carbonyl)amino]propanoic acid]
77%	Cc1cc(F)ccc1-n1cc(C(Nc2ccc(C(=O)NCCC(=O)O)cc2)C2CCCCC2)c(C)n1 (stereo not drawn) [Example 21, 3-({[4-({[1-(4-fluoro-2-methylphenyl)-3-methyl-1H-pyrazol-4-yl](cyclohexyl)methyl}amino)phenyl]carbonyl}amino)propanoic acid]
60%	Cc1nn(Cc2ccccc2)cc1C(Nc1ccc(C(=O)NCCC(=O)O)cc1)C1CCCCC1 (stereo not drawn) [Example 41, 3-{[(4-{[(1-benzyl-3-methyl-1H-pyrazol-4-yl)(cyclohexyl)methyl]amino}phenyl)carbonyl]amino}propanoic acid]
71%	COCc1nn(-c2cccc(C(F)(F)F)n2)cc1C(Nc1ccc(C(=O)NCCC(=O)O)cc1)C1CCCCC1 (stereo not drawn) [Example 91, 3-[({4-[(cyclohexyl{3-(methoxymethyl)-1-[6-(trifluoromethyl)pyridin-2-yl]-1H-pyrazol-4-yl}methyl)amino]phenyl}carbonyl)amino]propanoic acid]
78%	Cc1c(C(CC(C)C)Nc2ccc(C(=O)NCCC(=O)O)cc2)oc2ccc(Cl)cc12 (stereo not drawn) [Example A100, 3-{[(4-{[1-(5-chloro-3-methyl-1-benzofuran-2-yl)-3-methylbutyl]amino}phenyl)carbonyl]amino}propanoic acid]
70%	CC(C)Oc1nn(-c2ccc(OC(F)(F)F)cc2)cc1C(Nc1ccc(C(=O)NCCC(=O)O)cc1)C1CCCCC1 (stereo not drawn) [Example 64, 3-[({4-[(cyclohexyl{3-(1-methylethoxy)-1-[4-(trifluoromethoxy)phenyl]-1H-pyrazol-4-yl}methyl)amino]phenyl}carbonyl)amino]propanoic acid]
59%	Cc1nn(-c2ccccc2Cl)cc1C(Nc1ccc(C(=O)N(C)CCC(=O)O)cc1)C1CCCCC1 (stereo not drawn) [Example 73, 3-[{[4-({[1-(2-chlorophenyl)-3-methyl-1H-pyrazol-4-yl](cyclohexyl)methyl}amino)phenyl]carbonyl}(methyl)amino]-propanoic acid]
71%	CCc1nn(-c2cc(F)cc(F)c2)cc1C(Nc1ccc(C(=O)NCCC(=O)O)cc1)C1CCCCC1 (stereo not drawn) [Example 88, 3-({[4-({cyclohexyl[1-(3,5-difluorophenyl)-3-ethyl-1H-pyrazol-4-yl]methyl}amino)phenyl]carbonyl}amino)propanoic acid]
76%	Cc1c(C(Nc2ccc(C(=O)N(C)CCC(=O)O)cc2)C2CCCCC2)sc2cccnc12 (stereo not drawn) [Example A145, 3-{[(4-{[cyclohexyl(3-methylthieno[3,2-b]pyridin-2-yl)methyl]amino}phenyl)carbonyl](methyl)amino}propanoic acid]
87%	Cc1c(C(Nc2ccc(C(=O)NCCC(=O)O)cc2)C2CCCCC2)sc2ncccc12 (stereo not drawn) [Example A142, 3-{[(4-{[cyclohexyl(3-methylthieno[2,3-b]pyridin-2-yl)methyl]amino}phenyl)carbonyl]amino}propanoic acid]
74%	O=C(O)CCNC(=O)c1ccc(NC(c2cn(-c3ccc(C(F)(F)F)cn3)nc2C2CC2)C2CCCCC2)cc1 (stereo not drawn) [Example 9, 3-[({4-[(cyclohexyl{3-cyclopropyl-1-[5-(trifluoromethyl)pyridin-2-yl]-1H-pyrazol-4-yl}methyl)amino]phenyl}carbonyl)amino]propanoic acid]
67%	Cc1nn(-c2ncc(C(F)(F)F)cc2Cl)cc1C(Nc1ccc(C(=O)NCCC(=O)O)cc1)C1CCCCC1 (stereo not drawn) [Example 31, 3-{[(4-{[{1-[3-chloro-5-(trifluoromethyl)pyridin-2-yl]-3-methyl-1H-pyrazol-4-yl}(cyclohexyl)methyl]amino}phenyl)carbonyl]amino}propanoic acid]
72%	CC(C)c1nn(-c2ccc(C(F)(F)F)cn2)cc1C(Nc1ccc(C(=O)NCCC(=O)O)cc1)C1CCCCC1 (stereo not drawn) [Example 7, 3-[({4-[(cyclohexyl{3-(1-methylethyl)-1-[5-(trifluoromethyl)pyridin-2-yl]-1H-pyrazol-4-yl}methyl)amino]phenyl}carbonyl)amino]propanoic acid]
86%	Cc1c(C(Nc2ccc(C(=O)NCCC(=O)O)cc2)C2CCCCC2)oc2ccc(OCc3ccnc(F)c3)cc12 (stereo not drawn) [Example A167, 3-[({4-[(cyclohexyl{5-[(2-fluoropyridin-4-yl)methoxy]-3-methyl-1-benzofuran-2-yl}methyl)amino]phenyl}carbonyl)amino]propanoic acid]
66%	COCc1nn(-c2cccc(C(F)(F)F)n2)cc1C(Nc1ccc(C(=O)N(C)CCC(=O)O)cc1)C1CCCCC1 (stereo not drawn) [Example 90, 3-[({4-[(cyclohexyl{3-(methoxymethyl)-1-[6-(trifluoromethyl)pyridin-2-yl]-1H-pyrazol-4-yl}methyl)amino]phenyl}carbonyl)(methyl)amino]propanoic acid]
77%	COCc1nn(-c2ccc(C(F)(F)F)cn2)cc1C(Nc1ccc(C(=O)NCCC(=O)O)cc1)C1CCCCC1 (stereo not drawn) [Example 29, 3-[({4-[(cyclohexyl{3-(methoxymethyl)-1-[5-(trifluoromethyl)pyridin-2-yl]-1H-pyrazol-4-yl}methyl)amino]phenyl}carbonyl)amino]propanoic acid]
81%	Cc1c(C(Nc2ccc(C(=O)N(C)CCC(=O)O)cc2)C2CCCCC2)oc2ccc(OCc3ccccn3)cc12 (stereo not drawn) [Example A155, 3-[{[4-({cyclohexyl[3-methyl-5-(pyridin-2-ylmethoxy)-1-benzofuran-2-yl]methyl}amino)phenyl]carbonyl}(methyl)amino]propanoic acid]
92%	Cc1c(C(Nc2ccc(C(=O)N(C)CCC(=O)O)cc2)C2CCCCC2)oc2ccc(OC3CCSCC3)cc12 (stereo not drawn) [Example A160, 3-[{[4-({cyclohexyl[3-methyl-5-(tetrahydro-2H-thiopyran-4-yloxy)-1-benzofuran-2-yl]methyl}amino)phenyl]carbonyl}(methyl)amino]propanoic acid]
64%	CN(CCC(=O)O)C(=O)c1ccc(NC(c2csc3ccccc23)C2CCCCC2)cc1 (stereo not drawn) [Example A2, 3-{[(4-{[1-benzothiophen-3-yl(cyclohexyl)methyl]amino}phenyl)carbonyl](methyl)amino}-propanoic acid]
67%	Cc1sc2ccccc2c1C(Nc1ccc(C(=O)N(C)CCC(=O)O)cc1)C1CCCCC1 (stereo not drawn) [Example A9, 3-{[(4-{[cyclohexyl(2-methyl-1-benzothiophen-3-yl)methyl]amino}phenyl)carbonyl](methyl)amino}propanoic acid]
89%	Cc1c(C(Nc2ccc(C(=O)N(C)CCC(=O)O)cc2)C2CCCCC2)oc2ccc(OC3CCOCC3)cc12 (stereo not drawn) [Example A82, 3-[{[4-({cyclohexyl[3-methyl-5-(tetrahydro-2H-pyran-4-yloxy)-1-benzofuran-2-yl]methyl}amino)phenyl]carbonyl}(methyl)amino]propanoic acid]
79%	Cc1nn(-c2ccc(Cl)cc2)cc1C(Nc1ccc(C(=O)N(C)CCC(=O)O)cc1)C1CCCCC1 (stereo not drawn) [Example 20, 3-[{[4-({[1-(4-chlorophenyl)-3-methyl-1H-pyrazol-4-yl](cyclohexyl)methyl}amino)phenyl]carbonyl}(methyl)amino]-propanoic acid]
82%	Cc1c(C(Nc2ccc(C(=O)N(C)CCC(=O)O)cc2)C2CCCCC2)oc2ccc(NC(=O)c3ccccc3)cc12 (stereo not drawn) [Example A129, 3-[({4-[(cyclohexyl{3-methyl-5-[(phenylcarbonyl)amino]-1-benzofuran-2-yl]methyl)amino}phenyl]carbonyl)(methyl)amino}propanoic acid]
82%	COc1cc(OC)cc(-n2cc(C(Nc3ccc(C(=O)N(C)CCC(=O)O)cc3)C3CCCCC3)c(C)n2)c1 (stereo not drawn) [Example 81, 3-[{[4-({cyclohexyl[1-(3,5-dimethoxyphenyl)-3-methyl-1H-pyrazol-4-yl]methyl}amino)phenyl]carbonyl}(methyl)amino]propanoic acid]
78%	CSCCCOc1ccc2oc(C(Nc3ccc(C(=O)NCCC(=O)O)cc3)C3CCCCC3)c(C)c2c1 (stereo not drawn) [Example A151, 3-[({4-[(cyclohexyl{3-methyl-5-[3-(methylsulfanyl)propoxy]-1-benzofuran-2-yl}methyl)amino]phenyl}carbonyl)amino]propanoic acid]
71%	Cc1c(C(Nc2ccc(C(=O)NCCC(=O)O)cc2)C2CCCCC2)oc2ccc(Cl)nc12 (stereo not drawn) [Example A127, 3-{[(4-{[(5-chloro-3-methylfuro[3,2-b]pyridin-2-yl)(cyclohexyl)methyl]amino}phenyl)carbonyl]amino}propanoic acid]
